In patent US8476266B2, “Phenylacetic acid compound” (Ono Pharmaceutical Co., Ltd., priority 2007, dated 2013):
pIC50, pKi: −log10 of the molar value.

How the values were obtained:
[1] = target: T1, prostanoid receptor subtype (human EP2) (Homo sapiens, UniProt P43116); assay: Receptor binding experiment using prostanoid receptor subtype expressing cell (3H-PGE2, CHO cell membrane); conditions: 3H-PGE2 2.5 nM, read-out: Ki, EP2 receptor binding (3H-PGE2 binding inhibition)
T1 construct: expressed in transfected cells; host or cells: CHO cells
Experimental: According to the method of Sugimoto et. al. (J. Biol. Chem. 267, 6463-6466 (1992)), CHO cells in which prostanoid receptor subtype (human EP2) was expressed were prepared to obtain membrane preparation.
A reaction solution (200 μl) containing membrane fraction preparation (0.5 mg/ml) and ^3H-PGE2 was incubated at room temperature for one hour. The reaction was terminated by ice-cooled buffer (3 ml), bound ^3H-PGE2 was trapped on a glass filter (GF/B) by suction filtration at reduced pressure, and bound radioactivity was measured by a liquid scintillator.
The Kd value was calculated from Scatchard plots [Ann. N.Y. Acad. Sci. 51, 660 (1949)]. Nonspecific binding was determined as a bond in the presence of excessive amount (10 μM) of unlabeled PGE2. The measurement of ^3H-PGE2 binding inhibitory effect by the compound of the present invention was carried out by adding ^3H-PGE2 (2.5 nM) and the compound of the present invention at a variety of concentrations. Note that all reactions used the following buffer.
Buffer: potassium phosphate (10 mM, pH 6.0), EDTA (1 mM), MgCl2 (10 mM), NaCl (0.1 M).
Dissociation constant (Ki (μM)) of each compound was calculated from the following equation. Ki=IC50/(1+([C]/Kd) • IC50: Concentration of the compound of the present invention required for 50%-inhibition of [3H]PGE2 specific bond • C: Concentration of [3H]PGE2 • Kd: Dissociation constant of [3H]PGE2

Human CYP3A4 = target: T2, Human CYP3A4 (Homo sapiens, UniProt P08684); assay: Measurement of drug-metabolizing enzyme inhibitory activity (human CYP3A4 inhibitory effect), CYP3A4 expression system microsome, 7-BQ substrate; format: in vitro ADME; conditions: 7-benzyloxyquinoline substrate, 37° C., 30 minutes
T2 construct: purchased BD Gentest
Experimental: A solution of the test compound having a concentration five hundred times more than the evaluation concentration in ethanol, or ethanol was 125-fold diluted by water. 50 μL of the test compound solution or the ethanol solution (control) was added with CYP3A4 substrate (7-benzyloxyquinoline (7-BQ), 40 μmol/L), magnesium chloride solution (5 mmol/L), and 100 μL, of 200 mM potassium phosphate buffer solution (pH 7.4) containing CYP3A4 expression system microsome (BD Gentest, 0.25 mg/mL), and preincubated at 37° C. for 10 minutes, then added with 50 μL, of reduced nicotinamide adenine dinucleotide phosphate (NADPH, final concentration 1 mmol/L) and incubated at 37° C. for 30 minutes. Immediately after the addition of NADPH, and after incubation, the fluorescence intensity was measured for 7-hydroxyquinoline which is a metabolite of the substrate (excitation wavelength 409 nm, emission wavelength 530 nm). The inhibition ratio against the control was calculated by the equation below. Inhibition rate(%)=[1-{(fluorescence intensity of the test compound after incubation−fluorescence intensity of the test compound immediately after addition of NADPH)/(fluorescence intensity of control after incubation−fluorescence intensity of control immediately after the addition of NADPH)}]×100.
IC50 was calculated from the equation below. IC50(μmol/L)=(50−(D×A−C×B)/(D−C))/((B−A)/(D−C)) • A: Highest inhibition rate (%) which is less than 50%. • B: Lowest inhibition rate (%) which is more than 50%. • C: Concentration (μmol/L) of the test compound when the inhibition rate is A. • D: Concentration (μmol/L) of the test compound when the inhibition rate is B.

DP receptor = target: T3, DP receptor (Homo sapiens, UniProt Q13258); assay: Measurement of DP receptor antagonistic activity using human platelet-rich plasma (PRP); inhibition of PGD2-stimulated cAMP production; format: cell-based; conditions: for pIC50: human PRP, 3 μmol/L PGD2 stimulation; for binding activity against the DP receptor compared with the non-substituted compound (Comparative compound 1): in words
T3 construct: Blood was collected from the cubital vein of a healthy adult; endogenous in cells; host or cells: human platelets (platelet-rich plasma of a healthy adult donor)
T3 sequence (Q13258 1-359): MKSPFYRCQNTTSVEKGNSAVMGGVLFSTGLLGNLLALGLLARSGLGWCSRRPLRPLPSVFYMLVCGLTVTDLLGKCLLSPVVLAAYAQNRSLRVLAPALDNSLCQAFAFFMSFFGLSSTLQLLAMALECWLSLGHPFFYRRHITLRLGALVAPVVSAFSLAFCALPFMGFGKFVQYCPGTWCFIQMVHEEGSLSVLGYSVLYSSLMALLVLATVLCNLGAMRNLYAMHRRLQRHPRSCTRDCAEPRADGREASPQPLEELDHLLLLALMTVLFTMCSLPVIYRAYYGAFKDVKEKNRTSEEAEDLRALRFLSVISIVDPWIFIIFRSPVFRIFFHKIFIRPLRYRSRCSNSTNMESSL
Experimental: The collected blood was subjected to centrifugal separation at 100 G, at room temperature for 15 minutes to obtain PRP in the upper layer. EDTA was added to the obtained PRP so that the final concentration thereof to be about 10 mmol/L. The PRP was subjected to centrifugal separation at 1500 G, at room temperature for 15 minutes to obtain supernatant platelet poor plasma (PPP). After the obtained platelet pellets were suspended, the suspension was diluted with PPP so that the platelet density to be adjusted to 5.0×10^5/μL. To the obtained platelet suspension, 3-isobutyl-1-methylxanthine and prostanoid EP3 receptor antagonist were added so that the final concentrations thereof to be 8 mmol/L and 1 μmol/L, respectively.
297 μL of the prepared PRP was dispensed to each test tube, followed by subjecting to incubation at 37° C. for 5 minutes. After adding 1.5 μL of DMSO or a variety of concentrations of the compound of the present invention, 10 minutes of incubation was carried out at 37° C. 1.5 μL, of DMSO or PGD2 (final concentration: 3 μmol/L) was added thereto to initiate the reaction. After 15 minutes of incubation was carried out at 37° C., […] of ice-cooled 10% trichloroacetic acid (TCA) was added thereto to terminate the reaction. The TCA-treated sample was subjected to centrifugal separation at 15,000 G for 3 minutes at 4° C. The concentration of thus obtained supernatant cAMP was measured by enzyme immunoassay using cAMP EIA system (Amersham plc). 300 μL of the supernatant obtained above was mixed with 600 μL, of a solution of 0.5 mol/L tri-n-octylamine in chloroform. After extracting TCA in the organic layer, the cAMP content in the water layer sample was measured according to the method described in cAMP assay kit.

T1 sequence (P43116 whole entry): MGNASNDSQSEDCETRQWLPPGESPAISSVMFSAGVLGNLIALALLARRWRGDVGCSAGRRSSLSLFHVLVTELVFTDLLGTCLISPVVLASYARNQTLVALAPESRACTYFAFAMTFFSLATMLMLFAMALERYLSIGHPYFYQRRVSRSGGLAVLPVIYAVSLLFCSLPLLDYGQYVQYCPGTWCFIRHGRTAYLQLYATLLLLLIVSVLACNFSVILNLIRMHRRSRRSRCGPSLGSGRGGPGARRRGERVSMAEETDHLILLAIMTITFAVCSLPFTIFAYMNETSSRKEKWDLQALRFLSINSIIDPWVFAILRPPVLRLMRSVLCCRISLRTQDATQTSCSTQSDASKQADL
T2 sequence (P08684 whole entry): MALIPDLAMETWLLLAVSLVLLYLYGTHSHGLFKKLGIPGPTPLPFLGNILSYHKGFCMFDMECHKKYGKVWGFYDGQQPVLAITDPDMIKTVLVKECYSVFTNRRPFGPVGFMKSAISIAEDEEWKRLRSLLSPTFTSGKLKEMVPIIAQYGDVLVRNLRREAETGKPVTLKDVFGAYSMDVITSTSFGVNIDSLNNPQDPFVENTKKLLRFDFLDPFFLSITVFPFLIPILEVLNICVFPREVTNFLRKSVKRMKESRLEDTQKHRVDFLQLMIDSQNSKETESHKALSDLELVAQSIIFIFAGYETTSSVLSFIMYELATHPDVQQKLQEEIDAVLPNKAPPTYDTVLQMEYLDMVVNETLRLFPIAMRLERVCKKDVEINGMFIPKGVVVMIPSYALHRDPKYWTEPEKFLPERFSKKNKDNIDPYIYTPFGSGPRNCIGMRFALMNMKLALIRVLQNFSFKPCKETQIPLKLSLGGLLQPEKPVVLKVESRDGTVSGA

| pKi [1] | pIC50 (Human CYP3A4) | pIC50 (DP receptor) | SMILES | binding activity against the DP receptor compared with the non-substituted compound (Comparative compound 1) (DP receptor) |
| --- | --- | --- | --- | --- |
| 7.03 | ≤ 4.52 | 7.68 | Cc1cc(OC[C@@H]2CN(C)c3ccccc3O2)cc(C)c1C(=O)Nc1cccc(CC(=O)O)c1 [Comparative compound 1, (3-((2,6-dimethyl-4-(((2S)-4-methyl-3,4-dihydro-2H-1,4-benzoxazin-2-yl)methoxy)benzoyl)amino)phenyl)acetic acid] | – |
| – | > 5.52 | – | Cc1ccc(CC(=O)O)cc1NC(=O)c1c(C)cc(OC[C@@H]2CN(C)c3ccccc3O2)cc1C [Comparative compound 2, (3-((2,6-dimethyl-4-(((2S)-4-methyl-3,4-dihydro-2H-1,4-benzoxazin-2-yl)methoxy)benzoyl)amino)-4-methylphenyl)acetic acid] | more increased binding activity |
| 7.77 | 4.71 | 8.40 | Cc1cc(OC[C@@H]2CN(C)c3ccccc3O2)cc(C)c1C(=O)Nc1cc(CC(=O)O)ccc1Cl [Comparative compound 3, (4-chloro-3-((2,6-dimethyl-4-(((2S)-4-methyl-3,4-dihydro-2H-1,4-benzoxazin-2-yl)methoxy)benzoyl)amino)phenyl)acetic acid] | – |
| 6.85 | ≤ 4.52 | 8.15 | Cc1cc(OC[C@@H]2CN(C)c3ccccc3O2)cc(C)c1C(=O)Nc1cc(C2(C(=O)O)CC2)ccc1C(F)(F)F [Example 12, 1-(3-((2,6-dimethyl-4-(((2S)-4-methyl-3,4-dihydro-2H-1,4-benzoxazin-2-yl)methoxy)benzoyl)amino)-4-(trifluoromethyl)phenyl)cyclopropanecarboxylic acid] | – |
| – | ≤ 4.52 | 8.54 | CCc1cc(OC[C@@H]2CN(C)c3ccccc3O2)cc(C)c1C(=O)Nc1cc(C2(C(=O)O)CC2)ccc1C(F)(F)F [Example 21, 1-(3-((2-ethyl-6-methyl-4-(((2S)-4-methyl-3,4-dihydro-2H-1,4-benzoxazin-2-yl)methoxy)benzoyl)amino)-4-(trifluoromethyl)phenyl)cyclopropanecarboxylic acid] | – |
| – | 5.08 | 8.05 | Cc1cc(OC[C@@H]2CN(C)c3ccccc3O2)cc(C)c1C(=O)Nc1cc(CC(=O)O)ccc1C(F)(F)F [Example 24, (3-((2,6-dimethyl-4-(((2S)-4-methyl-3,4-dihydro-2H-1,4-benzoxazin-2-yl)methoxy)benzoyl)amino)-4-(trifluoromethyl)phenyl)acetic acid] | – |

| SMILES | pKi [1] | pIC50 (Human CYP3A4) | pIC50 (DP receptor) | binding activity against the DP receptor compared with the non-substituted compound (Comparative compound 1) (DP receptor) |
| --- | --- | --- | --- | --- |
| Cc1cc(OC[C@@H]2CN(C)c3ccccc3O2)cc(C)c1C(=O)Nc1cc(C2(C(=O)O)CC2)ccc1Cl [Comparative compound 4, 1-(4-chloro-3-((2,6-dimethyl-4-(((2S)-4-methyl-3,4-dihydro-2H-1,4-benzoxazin-2-yl)methoxy)benzoyl)amino)phenyl)cyclopropanecarboxylic acid] | 8.74 | ≤ 4.52 | 8.19 | more increased binding activity |
